For one molecule, mortality results are on record in patent US20090104145A1, “Mixtures of Anthranilamide Invertebrate Pest Control Agents” (priority 2004, published 2009).

The subject of this assay is corn planthopper (Pereginus maidis). The assay can be described thus: whole plant or invertebrate. Format: in vivo. To be noted: read-out: % mortality (obs). As to the method: The pest control protection afforded by the mixtures or compositions is not limited, however, to these species. The analysis of synergism or antagonism between the mixtures or compositions was determined using Colby's equation. The average % mortality data for the test compounds alone were inserted into the Colby's equation. If the observed average % mortality was higher than “p”, the expected % mortality, the mixture or composition had synergistic effects. If the observed average % mortality was equal to or lower than the expected mortality, the mixture or composition either had no synergistic effect or an antagonistic effect. In these tests, Compound 1 is the compound of Formula 1.
Test compounds were formulated using a solution containing 10% acetone, 90% water and 300 ppm X-77® Spreader Lo-Foam Formula non-ionic surfactant containing alkylarylpolyoxyethylene, free fatty acids, glycols and isopropanol (Loveland Industries, Inc.) to provide the desired concentration in ppm. Formulated test solutions were then applied in 1 mL volumes through a SUJ2 atomizer nozzle with ⅛ JJ custom body (Spraying Systems Co.) positioned 1.27 cm (0.5 inches) above the top of each test unit.
For evaluating control of corn planthopper (Pereginus maidis) through contact and/or systemic means, each test unit consisted of a small open cylindrical container with a 3- to 4-day-old corn (maize) plant (spike) inside. White sand was added to the top of the soil prior to application. Test compounds were formulated and sprayed with 3 replications as described for Test A. After spraying, the test units were allowed to dry for 1 hour before they were post-infested with 10 to 20 corn planthoppers (18- to 20-day-old nymphs) by sprinkling them onto the sand with a salt shaker. A black, screened cap was placed on the top of each container. The test units were held for 6 days in a growth chamber at 19-21° C. and 50-70% relative humidity.

One may read the mortality as the percentage killed. With `CNC(=O)c1cc(C#N)cc(C)c1NC(=O)c1cc(Br)nn1-c1ncccc1Cl` [Compound 1, 3-bromo-N-[4-cyano-2-methyl-6-[(methylamino)carbonyl]phenyl]-1-(3-chloro-2-pyridinyl)-1H-pyrazole-5-carboxamide], under “rate 0.3 ppm”, the mortality at 0.3 ppm was determined as 15%. Also, the mortality at 3 ppm (rate 3 ppm) came to 26%. For the same molecule, the mortality at 30 ppm (rate 30 ppm) turned out to be 90%.
